Values of other authors as cited in patent US7858118B2, “Extended release composition containing Tramadol” (Galephar Pharmaceutical Research, Inc., priority 2001, dated 2010).
Read-outs that look alike come from different tables or passages of the source.

Legend:
[1] = animal models
[2] = after oral administration of immediate release dosage form
[3] = in words
[4] = single 100 mg oral dose, healthy subjects

Compound	potency relative to Tramadol in u-opioid binding (μ-opioid receptors) [times]	potency relative to Tramadol in producing analgesia [1]	onset of analgesia [2] [h]	solubility in water and body fluids [3]	maximum plasma concentration of the [+]-enantiomer of Tramadol (100 mg dose) [ng/mL]	maximum plasma concentration of the [−]-enantiomer of Tramadol (100 mg dose) [ng/mL]	maximum plasma concentration of the [−]-M1 enantiomer (100 mg dose of Tramadol, first value of the pair) [ng/mL]	maximum plasma concentration of the other M1 enantiomer (not given) (100 mg dose of Tramadol, second value of the pair) [ng/mL]	maximum plasma concentration at steady state (100 mg four times daily) [ng/mL]	time to steady state (100 mg four times daily) [days]	mean absolute bioavailability (100 mg oral dose)	time to peak plasma concentrations (immediate release, oral (b6))	plasma half-life (multiple dosing) [h]	effect of food on rate or extent of absorption (oral, immediate release)	mean peak plasma concentration of the active mono-O-desmethyl metabolite (single 100 mg oral dose of Tramadol) [ng/mL]	time of peak plasma concentration of the mono-O-desmethyl metabolite (single 100 mg oral dose of Tramadol, post-dose)	mean peak plasma concentration of Tramadol [4] [ng/mL]	time of mean peak plasma concentration of Tramadol [4]	plasma half-life (single dosing) [h]
CN(C)C[C@H]1CCCC[C@]1(O)c1cccc(O)c1 [Example M1, O-desmethyl tramadol]	200	up to 6 times	–	–	–	–	–	–	–	–	–	–	–	–	–	–	–	–	–
COc1cccc(C2(O)CCCCC2CN(C)C)c1 (stereo not shown) [Tramadol]	–	–	≤ 1	extremely high solubility	168 ± 36	148 ± 33	35 ± 10	26 ± 13	592 ± 177	2	≈ 75%	≈ 2 hours	7	does not significantly affect	55 ± 20	≈ 3 hours	308 ± 78	≈ 2 hours	6
